Measurements: PubChem BioAssay AID1259407 (Chemical Carcinogenesis Research Information System (CCRIS), 2018)
Calls of active or inactive are those of the source. How the calls were made is not given here.

Tested on: CCRIS mutagenicity, Ames/micronucleus/aberration tests
Experiment: CCRIS mutagenicity studies
[1] = Test System: AMES SALMONELLA TYPHIMURIUM, Strain/Indicator: TA100, Metabolic Activation: NONE, Method: STANDARD PLATE

Q: Which results are given for CC1(C)C(C=C(Cl)Cl)C1C(=O)OCc1cccc(Oc2ccccc2)c1 (stereo not drawn)?
A: mutagenic call (Test System: AMES SALMONELLA TYPHIMURIUM, Strain/Indicator: TA97A, Metabolic Activation: NONE, Method: STANDARD PLATE): inactive; negative; mutagenic call (Test System: AMES SALMONELLA TYPHIMURIUM, Strain/Indicator: TA97A, Metabolic Activation: RAT, CECAL CELL FREE EXTRACT, Method: STANDARD PLATE): inactive; negative; mutagenic call (Test System: AMES SALMONELLA TYPHIMURIUM, Strain/Indicator: TA97A, Metabolic Activation: RAT, LIVER, S-9, AROCLOR 1254, Method: STANDARD PLATE): inactive; negative; mutagenic call (Test System: AMES SALMONELLA TYPHIMURIUM, Strain/Indicator: TA98, Metabolic Activation: NONE): active; positive; mutagenic call (Test System: AMES SALMONELLA TYPHIMURIUM, Strain/Indicator: TA98, Metabolic Activation: NONE, Method: MICROSUSPENSION): inactive; negative; mutagenic call (Test System: AMES SALMONELLA TYPHIMURIUM, Strain/Indicator: TA98, Metabolic Activation: NONE, Method: STANDARD PLATE): inactive; negative; mutagenic call (Test System: AMES SALMONELLA TYPHIMURIUM, Strain/Indicator: TA98, Metabolic Activation: RAT, CECAL CELL FREE EXTRACT, Method: STANDARD PLATE): inactive; negative; mutagenic call (Test System: AMES SALMONELLA TYPHIMURIUM, Strain/Indicator: TA98, Metabolic Activation: RAT, LIVER, S-9, AROCLOR 1254, Method: STANDARD PLATE): inactive; negative; mutagenic call (Test System: AMES SALMONELLA TYPHIMURIUM, Strain/Indicator: TA98, Metabolic Activation: RAT, LIVER, S-9, POLYCHLORINATED BIPHENYLS): inactive; negative; mutagenic call (Test System: AMES SALMONELLA TYPHIMURIUM, Strain/Indicator: TA98, Metabolic Activation: S-9, Method: MICROSUSPENSION): inactive; negative; mutagenic call (Test System: AMES SALMONELLA TYPHIMURIUM, Strain/Indicator: TA100): inactive; negative; mutagenic call (Test System: AMES SALMONELLA TYPHIMURIUM, Strain/Indicator: TA100, Metabolic Activation: NONE): inactive; negative; mutagenic call (Test System: AMES SALMONELLA TYPHIMURIUM, Strain/Indicator: TA100, Metabolic Activation: NONE, Method: MICROSUSPENSION): inactive; negative; mutagenic call [1]: inactive; negative; mutagenic call (Test System: AMES SALMONELLA TYPHIMURIUM, Strain/Indicator: TA100, Metabolic Activation: RAT, CECAL CELL FREE EXTRACT, Method: STANDARD PLATE): inactive; negative; mutagenic call (Test System: AMES SALMONELLA TYPHIMURIUM, Strain/Indicator: TA100, Metabolic Activation: RAT, LIVER, S-9, AROCLOR 1254, Method: STANDARD PLATE): inactive; negative; mutagenic call (Test System: AMES SALMONELLA TYPHIMURIUM, Strain/Indicator: TA100, Metabolic Activation: S-9, Method: MICROSUSPENSION): inactive; negative; mutagenic call (Test System: AMES SALMONELLA TYPHIMURIUM, Strain/Indicator: TA1535, Metabolic Activation: NONE, Method: STANDARD PLATE): inactive; negative; mutagenic call (Test System: AMES SALMONELLA TYPHIMURIUM, Strain/Indicator: TA1535, Metabolic Activation: RAT, LIVER, S-9, AROCLOR 1254, Method: STANDARD PLATE): inactive; negative; mutagenic call (Test System: AMES SALMONELLA TYPHIMURIUM, Strain/Indicator: TA1537, Metabolic Activation: NONE, Method: STANDARD PLATE): inactive; negative; mutagenic call (Test System: AMES SALMONELLA TYPHIMURIUM, Strain/Indicator: TA1537, Metabolic Activation: RAT, LIVER, S-9, AROCLOR 1254, Method: STANDARD PLATE): inactive; negative; mutagenic call (Test System: CHINESE HAMSTER V-79, Strain/Indicator: V-79/6-THIOGUANINE, Metabolic Activation: NONE, Method: STANDARD PLATE): inactive; negative; mutagenic call (Test System: CHINESE HAMSTER V-79, Strain/Indicator: V-79/6-THIOGUANINE, Metabolic Activation: RAT HEPATOCYTES, Method: STANDARD PLATE): inactive; negative; mutagenic call (Test System: CHINESE HAMSTER V-79, Strain/Indicator: V-79/OUABAIN, Metabolic Activation: NONE, Method: STANDARD PLATE): inactive; negative; mutagenic call (Test System: CHINESE HAMSTER V-79, Strain/Indicator: V-79/OUABAIN, Metabolic Activation: RAT HEPATOCYTES, Method: STANDARD PLATE): inactive; negative; mutagenic call (Test System: E. COLI, Strain/Indicator: WP2, Metabolic Activation: NONE, Method: STANDARD PLATE): inactive; negative; mutagenic call (Test System: E. COLI, Strain/Indicator: WP2, Metabolic Activation: RAT, LIVER, S-9, AROCLOR 1254, Method: STANDARD PLATE): inactive; negative

Q: With NC(=O)N(CCO)N=O as the compound, how does the mutagenic call (Test System: E. COLI B, Strain/Indicator: H/R30R, Metabolic Activation: NONE) read?
A: active; positive

Q: What about the mutagenic call (Test System: E. COLI B, Strain/Indicator: HS30R, Metabolic Activation: NONE) of the same compound?
A: active; positive

Q: With O=C(Cl)c1ccc(Cl)cc1 as the compound, how does the mutagenic call (Test System: AMES SALMONELLA TYPHIMURIUM, Strain/Indicator: TA98, Metabolic Activation: NONE, Method: PREINCUBATION) read?
A: inactive; negative

Q: What about the mutagenic call (Test System: AMES SALMONELLA TYPHIMURIUM, Strain/Indicator: TA98, Metabolic Activation: RAT LIVER S-9, PHENOBARBITAL AND BETA-NAPHTHOFLAVONE, Method: PREINCUBATION) of the same compound?
A: inactive; negative

Q: And the mutagenic call (Test System: AMES SALMONELLA TYPHIMURIUM, Strain/Indicator: TA100, Metabolic Activation: NONE, Method: PREINCUBATION)?
A: inactive; negative

Q: And the mutagenic call (Test System: AMES SALMONELLA TYPHIMURIUM, Strain/Indicator: TA100, Metabolic Activation: RAT LIVER S-9, PHENOBARBITAL AND BETA-NAPHTHOFLAVONE, Method: PREINCUBATION)?
A: inactive; negative

Q: And the mutagenic call (Test System: AMES SALMONELLA TYPHIMURIUM, Strain/Indicator: TA102, Metabolic Activation: NONE, Method: PREINCUBATION)?
A: inactive; negative

Q: And the mutagenic call (Test System: AMES SALMONELLA TYPHIMURIUM, Strain/Indicator: TA102, Metabolic Activation: RAT LIVER S-9, PHENOBARBITAL AND BETA-NAPHTHOFLAVONE, Method: PREINCUBATION)?
A: inactive; negative

Q: What about the mutagenic call (Test System: AMES SALMONELLA TYPHIMURIUM, Strain/Indicator: TA104, Metabolic Activation: NONE, Method: PREINCUBATION) of the same compound?
A: inactive; negative

Q: What about the mutagenic call (Test System: AMES SALMONELLA TYPHIMURIUM, Strain/Indicator: TA104, Metabolic Activation: RAT LIVER S-9, PHENOBARBITAL AND BETA-NAPHTHOFLAVONE, Method: PREINCUBATION) of the same compound?
A: inactive; negative

Q: What about the mutagenic call (Test System: AMES SALMONELLA TYPHIMURIUM, Strain/Indicator: TA1535, Metabolic Activation: NONE, Method: PREINCUBATION) of the same compound?
A: inactive; negative

Q: What about the mutagenic call (Test System: AMES SALMONELLA TYPHIMURIUM, Strain/Indicator: TA1535, Metabolic Activation: RAT LIVER S-9, PHENOBARBITAL AND BETA-NAPHTHOFLAVONE, Method: PREINCUBATION) of the same compound?
A: inactive; negative

Q: And the mutagenic call (Test System: AMES SALMONELLA TYPHIMURIUM, Strain/Indicator: TA1537, Metabolic Activation: NONE, Method: PREINCUBATION)?
A: inactive; negative

Q: What about the mutagenic call (Test System: AMES SALMONELLA TYPHIMURIUM, Strain/Indicator: TA1537, Metabolic Activation: RAT LIVER S-9, PHENOBARBITAL AND BETA-NAPHTHOFLAVONE, Method: PREINCUBATION) of the same compound?
A: inactive; negative

Q: What about the mutagenic call (Test System: E.COLI, Strain/Indicator: WP2UVRA/PKM101, Metabolic Activation: NONE, Method: PREINCUBATION) of the same compound?
A: inactive; negative

Q: What about the mutagenic call (Test System: E.COLI, Strain/Indicator: WP2UVRA/PKM101, Metabolic Activation: RAT LIVER S-9, PHENOBARBITAL AND BETA-NAPHTHOFLAVONE, Method: PREINCUBATION) of the same compound?
A: inactive; negative

Q: And the mutagenic call (Test System: E.COLI, Strain/Indicator: WP2UVRA, Metabolic Activation: NONE, Method: PREINCUBATION)?
A: inactive; negative

Q: And the mutagenic call (Test System: E.COLI, Strain/Indicator: WP2UVRA, Metabolic Activation: RAT LIVER S-9, PHENOBARBITAL AND BETA-NAPHTHOFLAVONE, Method: PREINCUBATION)?
A: inactive; negative

Q: How did the mutagenic call (End Point: In vitro micronucleus, Test System: Human lymphocytes, Metabolic Activation: None) turn out when O=C/C(Br)=C(/Br)C(=O)O was run?
A: inactive; negative

Q: And the mutagenic call [1]?
A: active; positive

Q: COc1nsc2c([N+](=O)[O-])cccc12 was tested. Which mutagenic call [1] did it give?
A: active; positive
